In ChEMBL document CHEMBL3860082, “Effect of lysine methylation and acetylation on the RNA recognition and cellular uptake of Tat-derived peptides” (Bioorg Med Chem, 2016):
pKd: −log10 of the molar value.

Columns and labels:
[1] = Cytotoxicity against human Jurkat cells assessed as reduction in cell viability at 120 uM after 4 hrs by WST1 assay; type: toxicity, cell-based
[2] = Drug uptake in human Jurkat cells assessed as mean fluorescence intensity at 120 uM after 15 mins in presence of bovine serum by propidium iodide staining based FACS analysis; type: ADME, cell-based; conditions: 0.25 h
[3] = Competitive binding affinity to fluorescein-labeled HIV TAR RNA in presence of Escherichia coli tRNA by electrophoretic mobility shift assay; set-up: species or system Human immunodeficiency virus; conditions: read-out: Kd(app)
[4] = Drug uptake in human Jurkat cells assessed as mean fluorescence intensity at 7 uM after 15 mins in presence of bovine serum by propidium iodide staining based FACS analysis; type: ADME, cell-based; conditions: 0.25 h

SMILES	Activity [1]	Drug uptake [2]	pKd [3]	Drug uptake [4]
CN(C)CCCC[C@H](NC(=O)[C@H](CCCCN)NC(=O)[C@H](CCCNC(=N)N)NC(=O)CNC(=O)[C@H](Cc1ccc(O)cc1)NC(=O)CCNC(=O)c1ccc2c(c1)C1(OC2=O)c2ccc(O)cc2Oc2cc(O)ccc21)C(=O)N[C@@H](CCCNC(=N)N)C(=O)N[C@@H](CCCNC(=N)N)C(=O)N[C@@H](CCC(N)=O)C(=O)N[C@@H](CCCNC(=N)N)C(=O)N[C@@H](CCCNC(=N)N)C(=O)N[C@@H](CCCNC(=N)N)C(=O)O	Non-Toxic	Active	–	–
CC(=O)NCCCC[C@H](NC(=O)[C@H](CCCNC(=N)N)NC(=O)CNC(=O)[C@H](Cc1ccc(O)cc1)NC(=O)CCNC(=O)c1ccc2c(c1)C1(OC2=O)c2ccc(O)cc2Oc2cc(O)ccc21)C(=O)N[C@@H](CCCCN)C(=O)N[C@@H](CCCNC(=N)N)C(=O)N[C@@H](CCCNC(=N)N)C(=O)N[C@@H](CCC(N)=O)C(=O)N[C@@H](CCCNC(=N)N)C(=O)N[C@@H](CCCNC(=N)N)C(=O)N[C@@H](CCCNC(=N)N)C(=O)O	Non-Toxic	–	–	–
CNCCCC[C@H](NC(=O)[C@H](CCCCN)NC(=O)[C@H](CCCNC(=N)N)NC(=O)CNC(=O)[C@H](Cc1ccc(O)cc1)NC(C)=O)C(=O)N[C@@H](CCCNC(=N)N)C(=O)N[C@@H](CCCNC(=N)N)C(=O)N[C@@H](CCC(N)=O)C(=O)N[C@@H](CCCNC(=N)N)C(=O)N[C@@H](CCCNC(=N)N)C(=O)N[C@@H](CCCNC(=N)N)C(N)=O	–	–	6.39	–
CC(=O)NCCCC[C@H](NC(=O)[C@H](CCCCN)NC(=O)[C@H](CCCNC(=N)N)NC(=O)CNC(=O)[C@H](Cc1ccc(O)cc1)NC(=O)CCNC(=O)c1ccc2c(c1)C1(OC2=O)c2ccc(O)cc2Oc2cc(O)ccc21)C(=O)N[C@@H](CCCNC(=N)N)C(=O)N[C@@H](CCCNC(=N)N)C(=O)N[C@@H](CCC(N)=O)C(=O)N[C@@H](CCCNC(=N)N)C(=O)N[C@@H](CCCNC(=N)N)C(=O)N[C@@H](CCCNC(=N)N)C(=O)O	Non-Toxic	–	–	–
C[N+](C)(C)CCCC[C@H](NC(=O)[C@H](CCCNC(=N)N)NC(=O)CNC(=O)[C@H](Cc1ccc(O)cc1)NC(=O)CCNC(=O)c1ccc2c(c1)C1(OC2=O)c2ccc(O)cc2Oc2cc(O)ccc21)C(=O)N[C@@H](CCCCN)C(=O)N[C@@H](CCCNC(=N)N)C(=O)N[C@@H](CCCNC(=N)N)C(=O)N[C@@H](CCC(N)=O)C(=O)N[C@@H](CCCNC(=N)N)C(=O)N[C@@H](CCCNC(=N)N)C(=O)N[C@@H](CCCNC(=N)N)C(=O)O	Non-Toxic	Active	–	Active
N=C(N)NCCC[C@H](NC(=O)[C@H](CCCNC(=N)N)NC(=O)[C@H](CCCNC(=N)N)NC(=O)[C@H](CCC(N)=O)NC(=O)[C@H](CCCNC(=N)N)NC(=O)[C@H](CCCNC(=N)N)NC(=O)[C@H](CCCCN)NC(=O)[C@H](CCCCN)NC(=O)[C@H](CCCNC(=N)N)NC(=O)CNC(=O)[C@H](Cc1ccc(O)cc1)NC(=O)CCNC(=O)c1ccc2c(c1)C1(OC2=O)c2ccc(O)cc2Oc2cc(O)ccc21)C(N)=O	Non-Toxic	Active	–	Active
CNCCCC[C@H](NC(=O)[C@H](CCCNC(=N)N)NC(=O)CNC(=O)[C@H](Cc1ccc(O)cc1)NC(C)=O)C(=O)N[C@@H](CCCCN)C(=O)N[C@@H](CCCNC(=N)N)C(=O)N[C@@H](CCCNC(=N)N)C(=O)N[C@@H](CCC(N)=O)C(=O)N[C@@H](CCCNC(=N)N)C(=O)N[C@@H](CCCNC(=N)N)C(=O)N[C@@H](CCCNC(=N)N)C(N)=O	–	–	6.58	–
CNCCCC[C@H](NC(=O)[C@H](CCCCN)NC(=O)[C@H](CCCNC(=N)N)NC(=O)CNC(=O)[C@H](Cc1ccc(O)cc1)NC(=O)CCNC(=O)c1ccc2c(c1)C1(OC2=O)c2ccc(O)cc2Oc2cc(O)ccc21)C(=O)N[C@@H](CCCNC(=N)N)C(=O)N[C@@H](CCCNC(=N)N)C(=O)N[C@@H](CCC(N)=O)C(=O)N[C@@H](CCCNC(=N)N)C(=O)N[C@@H](CCCNC(=N)N)C(=O)N[C@@H](CCCNC(=N)N)C(=O)O	Non-Toxic	–	–	–
CC(=O)N[C@@H](Cc1ccc(O)cc1)C(=O)NCC(=O)N[C@@H](CCCNC(=N)N)C(=O)N[C@@H](CCCCN)C(=O)N[C@@H](CCCCN(C)C)C(=O)N[C@@H](CCCNC(=N)N)C(=O)N[C@@H](CCCNC(=N)N)C(=O)N[C@@H](CCC(N)=O)C(=O)N[C@@H](CCCNC(=N)N)C(=O)N[C@@H](CCCNC(=N)N)C(=O)N[C@@H](CCCNC(=N)N)C(N)=O	–	–	6.55	–
CC(=O)NCCCC[C@H](NC(=O)[C@H](CCCCN)NC(=O)[C@H](CCCNC(=N)N)NC(=O)CNC(=O)[C@H](Cc1ccc(O)cc1)NC(C)=O)C(=O)N[C@@H](CCCNC(=N)N)C(=O)N[C@@H](CCCNC(=N)N)C(=O)N[C@@H](CCC(N)=O)C(=O)N[C@@H](CCCNC(=N)N)C(=O)N[C@@H](CCCNC(=N)N)C(=O)N[C@@H](CCCNC(=N)N)C(N)=O	–	–	6.43	–
CC(=O)N[C@@H](Cc1ccc(O)cc1)C(=O)NCC(=O)N[C@@H](CCCNC(=N)N)C(=O)N[C@@H](CCCC[N+](C)(C)C)C(=O)N[C@@H](CCCCN)C(=O)N[C@@H](CCCNC(=N)N)C(=O)N[C@@H](CCCNC(=N)N)C(=O)N[C@@H](CCC(N)=O)C(=O)N[C@@H](CCCNC(=N)N)C(=O)N[C@@H](CCCNC(=N)N)C(=O)N[C@@H](CCCNC(=N)N)C(N)=O	–	–	6.77	–
CN(C)CCCC[C@H](NC(=O)[C@H](CCCNC(=N)N)NC(=O)CNC(=O)[C@H](Cc1ccc(O)cc1)NC(=O)CCNC(=O)c1ccc2c(c1)C1(OC2=O)c2ccc(O)cc2Oc2cc(O)ccc21)C(=O)N[C@@H](CCCCN)C(=O)N[C@@H](CCCNC(=N)N)C(=O)N[C@@H](CCCNC(=N)N)C(=O)N[C@@H](CCC(N)=O)C(=O)N[C@@H](CCCNC(=N)N)C(=O)N[C@@H](CCCNC(=N)N)C(=O)N[C@@H](CCCNC(=N)N)C(=O)O	Non-Toxic	Active	–	Active
CC(=O)NCCCC[C@H](NC(=O)[C@H](CCCNC(=N)N)NC(=O)CNC(=O)[C@H](Cc1ccc(O)cc1)NC(C)=O)C(=O)N[C@@H](CCCCN)C(=O)N[C@@H](CCCNC(=N)N)C(=O)N[C@@H](CCCNC(=N)N)C(=O)N[C@@H](CCC(N)=O)C(=O)N[C@@H](CCCNC(=N)N)C(=O)N[C@@H](CCCNC(=N)N)C(=O)N[C@@H](CCCNC(=N)N)C(N)=O	–	–	6.36	–
CC(=O)N[C@@H](Cc1ccc(O)cc1)C(=O)NCC(=O)N[C@@H](CCCNC(=N)N)C(=O)N[C@@H](CCCCN)C(=O)N[C@@H](CCCC[N+](C)(C)C)C(=O)N[C@@H](CCCNC(=N)N)C(=O)N[C@@H](CCCNC(=N)N)C(=O)N[C@@H](CCC(N)=O)C(=O)N[C@@H](CCCNC(=N)N)C(=O)N[C@@H](CCCNC(=N)N)C(=O)N[C@@H](CCCNC(=N)N)C(N)=O	–	–	6.22	–
C[N+](C)(C)CCCC[C@H](NC(=O)[C@H](CCCCN)NC(=O)[C@H](CCCNC(=N)N)NC(=O)CNC(=O)[C@H](Cc1ccc(O)cc1)NC(=O)CCNC(=O)c1ccc2c(c1)C1(OC2=O)c2ccc(O)cc2Oc2cc(O)ccc21)C(=O)N[C@@H](CCCNC(=N)N)C(=O)N[C@@H](CCCNC(=N)N)C(=O)N[C@@H](CCC(N)=O)C(=O)N[C@@H](CCCNC(=N)N)C(=O)N[C@@H](CCCNC(=N)N)C(=O)N[C@@H](CCCNC(=N)N)C(=O)O	Non-Toxic	Active	–	–
CNCCCC[C@H](NC(=O)[C@H](CCCNC(=N)N)NC(=O)CNC(=O)[C@H](Cc1ccc(O)cc1)NC(=O)CCNC(=O)c1ccc2c(c1)C1(OC2=O)c2ccc(O)cc2Oc2cc(O)ccc21)C(=O)N[C@@H](CCCCN)C(=O)N[C@@H](CCCNC(=N)N)C(=O)N[C@@H](CCCNC(=N)N)C(=O)N[C@@H](CCC(N)=O)C(=O)N[C@@H](CCCNC(=N)N)C(=O)N[C@@H](CCCNC(=N)N)C(=O)N[C@@H](CCCNC(=N)N)C(=O)O	Non-Toxic	Active	–	Active
CC(=O)N[C@@H](Cc1ccc(O)cc1)C(=O)NCC(=O)N[C@@H](CCCNC(=N)N)C(=O)N[C@@H](CCCCN(C)C)C(=O)N[C@@H](CCCCN)C(=O)N[C@@H](CCCNC(=N)N)C(=O)N[C@@H](CCCNC(=N)N)C(=O)N[C@@H](CCC(N)=O)C(=O)N[C@@H](CCCNC(=N)N)C(=O)N[C@@H](CCCNC(=N)N)C(=O)N[C@@H](CCCNC(=N)N)C(N)=O	–	–	6.74	–
